Measured values taken from US5218114A, “Cholecystokinin antagonists” (Merck & Co., Inc., priority 1992, dated 1993).
Where two headings read alike, the source gives them in different places. Square brackets hold non-standard residues; d marks the D form. Peptide text beside a SMILES is read from it. * marks the point of attachment. sY = N[C@@H](Cc1ccc(OS(=O)(=O)O)cc1)C(=O)O; Cbz = O=C(OCc1ccccc1)*

Columns and labels:
CCK receptor = settings: literature; cited from earlier work
CCK receptor (pancreas) = biological target: T1, CCK receptor (pancreas) (Rattus norvegicus, UniProt P30551); test: CCK Receptor Binding (Pancreas); parameters: species or system rat (male Sprague-Dawley)
T1 construct: The whole pancreas was dissected free of fat tissue and was homogenized; from tissue; host or cells: rat whole pancreas, homogenate membranes
T1 sequence (P30551 1-444): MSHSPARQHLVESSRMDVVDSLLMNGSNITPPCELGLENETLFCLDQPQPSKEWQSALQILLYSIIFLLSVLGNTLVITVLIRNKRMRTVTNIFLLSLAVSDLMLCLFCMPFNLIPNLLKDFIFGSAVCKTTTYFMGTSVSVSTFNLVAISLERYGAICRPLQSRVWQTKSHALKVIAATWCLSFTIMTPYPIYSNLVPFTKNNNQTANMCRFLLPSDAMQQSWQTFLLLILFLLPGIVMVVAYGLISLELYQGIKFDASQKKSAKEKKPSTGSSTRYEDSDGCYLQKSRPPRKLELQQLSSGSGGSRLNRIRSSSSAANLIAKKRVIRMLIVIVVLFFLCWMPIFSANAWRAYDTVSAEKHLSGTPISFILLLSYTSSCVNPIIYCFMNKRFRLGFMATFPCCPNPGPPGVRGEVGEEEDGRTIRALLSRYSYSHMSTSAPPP
Procedure: 1. CCK Receptor Binding (Pancreas)
CCK-8 sulphated was radiolabelled with ^125 I-Bolton Hunter reagent (2000 Ci/mmole). Receptor binding was performed according to Chang and Lotti (Proc. Natl. Acad. Sci. 83, 4923-4926, 1986) with minor modifications.
Male Sprague-Dawley rats (150-200 g) were sacrificed by decapitation. The whole pancreas was dissected free of fat tissue and was homogenized in 25 volumes of ice-cold 10 mM Hepes buffer with 0.1% soya bean trypsin inhibitor (pH 7.4 at 25° C.) with a Kinematica Polytron. The homogenates were centrifuged at 47,800 g for 10 min. Pellets were resuspended in 10 volumes of binding assay buffer (20 mM Hepes, 1 mM EGTA, 5 mM MgCl2, 150 mM NaCl, bacitracin 0.25 mg/ml, soya bean trypsin inhibitor 0.1 mg/ml, and bovine serum albumin 2 mg/ml, pH 6.5 at 25° C.) using a teflon homogenizer, 15 strokes at 500 rpm. The homogenate was further diluted in binding assay buffer to give a final concentration of 0.5 mg original wet weight/1 ml buffer. […] All assays were run in duplicate. The reaction mixtures were incubated at 25° C. for 2 hours and the reaction terminated by rapid filtration (Brandell 24 well cell harvester) over Whatman GF/C filters, washing 3×4 mls with ice-cold 100 mM NaCl. The radioactivity on the filters was counted with a LKB gamma counter.
(§1) Drug displacement studies were performed with at least 10 concentrations of compounds of formula 1 and the IC50 values were determined by regression analysis.

[1] = biological target: T2, CCK receptor (brain, cortex) (Cavia porcellus, UniProt H0VZC5); test: CCK Receptor Binding (Brain); parameters: species or system guinea pig (male Hartley)
T2 construct: the cortex was removed and homogenized in 25 mL ice-cold 0.32M sucrose; from tissue; host or cells: guinea pig brain cortex, P2 membranes
T2 sequence (H0VZC5 1-426): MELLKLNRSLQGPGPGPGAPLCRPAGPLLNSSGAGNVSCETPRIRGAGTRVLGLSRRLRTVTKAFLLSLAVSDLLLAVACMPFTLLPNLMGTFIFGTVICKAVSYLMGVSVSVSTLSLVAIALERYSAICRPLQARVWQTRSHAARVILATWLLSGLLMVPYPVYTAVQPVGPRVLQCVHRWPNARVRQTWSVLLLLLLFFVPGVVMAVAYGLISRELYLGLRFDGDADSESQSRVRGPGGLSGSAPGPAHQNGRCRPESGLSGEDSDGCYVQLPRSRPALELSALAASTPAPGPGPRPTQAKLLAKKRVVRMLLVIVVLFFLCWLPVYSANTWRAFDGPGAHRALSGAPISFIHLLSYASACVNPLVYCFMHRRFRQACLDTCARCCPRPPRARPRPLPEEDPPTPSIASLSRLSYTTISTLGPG
Procedure: 2. CCK Receptor Binding (Brain)
CCK-8 sulphated was radiolabelled and the binding was performed according to the description for the pancreas method with minor modifications.
Male Hartley guinea pigs (300-500 g) were sacrificed by decapitation and the cortex was removed and homogenized in 25 mL ice-cold 0.32M sucrose. The homogenates were centrifuged at 1000 g for 10 minutes and the resulting supernatant was recentrifuged at 20,000 g for 20 minutes. […] All assays were run in duplicate. The reaction mixtures were incubated at 25° C. for 2 hours and then the reaction was terminated on Whatman GF/C filters by rapid filtration (Brandell 24 well cell Harvester) with 3×5 ml washes of cold 100 mM NaCl. The radioactivity on the filters was then counted with a LKB gamma counter.
as §1

CCK-B receptors = settings: Bock et al., J. Med. Chem., 32, 13-16 (1989); cited from earlier work
gastrin = settings: J. Martinez, J. Med. Chem. 27, 1597 (1984); cited from earlier work
[2] = 125I-CCK-8 50 pM, rat pancreas, 25° C., 2 hours, read-out: CCK RECEPTOR BINDING RESULTS IC50, 125I-CCK Pancreas
[3] = 125I-CCK-8 50 pM, guinea pig cortex, 25° C., 2 hours, read-out: CCK RECEPTOR BINDING RESULTS IC50, 125I-CCK Brain

Row | SMILES | IC50 [1, 3] [nM] | IC50 (CCK receptor (pancreas)) [nM] | further results
1 | CSCC[C@H](NC(=O)[C@H](Cc1ccc(OS(=O)(=O)O)cc1)NC(=O)OCc1ccccc1)C(=O)NCC(=O)N[C@@H](Cc1c[nH]c2ccccc12)C(=O)N[C@@H](CCSC)C(=O)N[C@@H](CC(=O)O)C(N)=O [Cbz--Tyr(SO3 H)--Met--Gly--Trp--Met--Asp--NH2] (Cbz-[sY]MGWMD-NH2) | – | – | CCK-receptor antagonist potency / agonism (CCK receptor): partial agonist
2 | O=C(Nc1ccc(Cl)cc1)NC1N=C(c2ccccc2)c2ccccc2N(CC(O)CO)C1=O (centres unmarked) [Example 5, N-{1,3-Dihydro-1-[2,3-(dihydroxy)propyl]-2-oxo-5-phenyl-1H-1,4-benzodiazepin-3-yl}-N'-{[4-chlorophenyl]-urea}] | – | – | IC50 (CCK receptor (pancreas); [2]): > 3000 nM; IC50 [1]: 118 nM
3 | O=C(Nc1ccc(Cl)cc1)NC1N=C(c2ccccc2)c2ccccc2N(CC(Cl)CO)C1=O (centres unmarked) [Example 4, N-{1,3-Dihydro-1-[3-((hydroxy)-2-chloro)propyl]-2-oxo-5-phenyl-1H-1,4-benzodiazepin-3-yl}-N'-{[4-chlorophenyl]-urea}] | 62 | – | IC50 (CCK receptor (pancreas); [2]): > 3000 nM
4 | CN(C)CC(O)CN1C(=O)C(NC(=O)Nc2ccc(Cl)cc2)N=C(c2ccccc2)c2ccccc21 (centres unmarked) [Example 3, N-{1,3-Dihydro-1-[3-((dimethylamino)-2-hydroxy)propyl]-2-oxo-5-phenyl-1H-1,4-benzodiazepin-3-yl}-N'-{[4-chlorophenyl]-urea}] | 430 | > 3000 | –
5 | Cc1cccc(NC(=O)N[C@@H]2N=C(c3ccccc3)c3ccccc3N(C)C2=O)c1 [(R)-N-(2,3-dihydro-1-methyl-2-oxo-5-phenyl-1H-1,4-benzodiazepin-3-yl)-N^1-(3-methylphenyl) urea] | – | – | antagonist of CCK-B receptors (CCK-B receptors): potent and selective antagonist of CCK-B receptors
6 | CCCN(CCC)C(=O)C(CCC(=O)O)NC(=O)c1ccccc1 (centres unmarked) [proglumide] | – | – | in vitro gastrin antagonism (gastrin): very weak in vitro antagonists
7 | O=C(Nc1ccc(Cl)cc1)NC1N=C(c2ccccc2)c2ccccc2N(Cc2nnn[nH]2)C1=O (centres unmarked) [Example 1, N-{1,3-Dihydro-1-[1H-tetrazol-5yl]methyl-2-oxo-5-phenyl-1H-1,4-benzodiazepin-3-yl}-N'-{[4-chlorophenyl]-urea}] | 494 | 2130 | –
8 | CCCC(=O)Nc1nc2c(ncn2[C@@H]2O[C@@H]3COP(=O)(O)O[C@H]3[C@H]2OC(=O)CCC)c(=O)[nH]1 [dibutyryl cyclic GMP] | – | – | CCK-receptor antagonist potency / agonism (CCK receptor): the most potent
9 | O=C(Nc1ccc(Cl)cc1)NC1N=C(c2ccccc2)c2ccccc2N(CC(O)CN2CCCC2)C1=O (centres unmarked) [Example 2, N-{1,3-Dihydro-1-[3-((pyrrolidinyl)-2-hydroxy)propyl]-2-oxo-5-phenyl-1H-1,4-benzodiazepin-3-yl}-N'-{[4-chlorophenyl]-urea}] | 300 | > 3000 | –
